Experimental data: ChEMBL document CHEMBL4130359, “Indazole-based ligands for estrogen-related receptor α as potential anti-diabetic agents” (Eur J Med Chem, 2017)

Experiments:
[1] = tested on: Rattus norvegicus; experiment: Effect on ATP5C1 gene expression in epididymal white adipose tissue of Zucker rat sub-chronic fa/fa prediabetic model at 10 mg/kg, po qd for 15 days by microarray analysis relative to control; assay type: functional
[2] = tested on: Rattus norvegicus; experiment: Effect on HADHB gene expression in epididymal white adipose tissue of Zucker rat sub-chronic fa/fa prediabetic model at 10 mg/kg, po qd for 15 days by microarray analysis relative to control; assay type: functional
[3] = tested on: Rattus norvegicus; experiment: Effect on YWHAG gene expression in epididymal white adipose tissue of Zucker rat sub-chronic fa/fa prediabetic model at 10 mg/kg, po qd for 15 days by microarray analysis relative to control; assay type: functional
[4] = tested on: Rattus norvegicus; experiment: Effect on ACADM gene expression in epididymal white adipose tissue of Zucker rat sub-chronic fa/fa prediabetic model at 10 mg/kg, po qd for 15 days by microarray analysis relative to control; assay type: functional
[5] = target: Estrogen receptor beta (Homo sapiens, UniProt Q92731); experiment: Inhibition of fluormone ES2 binding to recombinant full length human ERbeta expressed in insect cells by fluorescence polarization assay
Chain of Estrogen receptor beta (Q92731 whole entry): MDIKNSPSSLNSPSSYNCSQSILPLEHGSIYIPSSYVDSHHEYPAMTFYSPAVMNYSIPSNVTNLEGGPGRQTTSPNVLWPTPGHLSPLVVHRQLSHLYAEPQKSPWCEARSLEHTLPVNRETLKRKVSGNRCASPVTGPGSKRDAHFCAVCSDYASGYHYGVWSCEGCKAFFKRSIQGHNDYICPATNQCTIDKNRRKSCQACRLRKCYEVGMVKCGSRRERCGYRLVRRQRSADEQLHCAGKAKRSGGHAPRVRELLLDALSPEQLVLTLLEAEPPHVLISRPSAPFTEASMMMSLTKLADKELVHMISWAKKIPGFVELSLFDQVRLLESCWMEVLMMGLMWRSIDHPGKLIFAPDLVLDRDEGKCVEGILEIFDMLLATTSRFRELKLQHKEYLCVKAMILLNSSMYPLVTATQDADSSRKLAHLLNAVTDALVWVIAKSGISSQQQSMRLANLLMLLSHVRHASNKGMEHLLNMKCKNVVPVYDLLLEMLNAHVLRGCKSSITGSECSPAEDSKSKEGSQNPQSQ

[6] = tested on: Rattus norvegicus; experiment: Antidiabetic activity in Zucker rat sub-chronic fa/fa prediabetic model assessed as blood insulin AUC (0 to 120 min) at 3 mg/kg, po qd for 31 days measured on day 29 post dose (reference value: 1503 +/- 160 ug.min/L); assay type: functional, organism-based; design: dose 3 mg/kg, time < 2 hr
[7] = tested on: Rattus norvegicus; experiment: Effect on CPT1A gene expression in epididymal white adipose tissue of Zucker rat sub-chronic fa/fa prediabetic model at 10 mg/kg, po qd for 15 days by microarray analysis relative to control; assay type: functional
[8] = tested on: Rattus norvegicus; experiment: Toxicity in Zucker rat sub-chronic fa/fa prediabetic model assessed as heart weight at 50 mg/kg, po qd for 31 days measured on day 32 (reference value: 1.19 +/- 0.04 g); assay type: organism-based; details: in vivo, 744 h
[9] = tested on: Rattus norvegicus; experiment: Toxicity in […] chronic ob/ob model assessed as food intake at 10 mg/kg, po qd for 28 days measured on day 1 to 28 during compound dosing (reference value: 170.6 +/- 3 g); assay type: organism-based; details: in vivo, 672 h
[10] = target: Estrogen receptor (Homo sapiens, UniProt P03372); experiment: Inhibition of fluormone ES2 green binding to recombinant full length human ERalpha expressed in insect cells by fluorescence polarization assay
Chain of Estrogen receptor (P03372 whole entry): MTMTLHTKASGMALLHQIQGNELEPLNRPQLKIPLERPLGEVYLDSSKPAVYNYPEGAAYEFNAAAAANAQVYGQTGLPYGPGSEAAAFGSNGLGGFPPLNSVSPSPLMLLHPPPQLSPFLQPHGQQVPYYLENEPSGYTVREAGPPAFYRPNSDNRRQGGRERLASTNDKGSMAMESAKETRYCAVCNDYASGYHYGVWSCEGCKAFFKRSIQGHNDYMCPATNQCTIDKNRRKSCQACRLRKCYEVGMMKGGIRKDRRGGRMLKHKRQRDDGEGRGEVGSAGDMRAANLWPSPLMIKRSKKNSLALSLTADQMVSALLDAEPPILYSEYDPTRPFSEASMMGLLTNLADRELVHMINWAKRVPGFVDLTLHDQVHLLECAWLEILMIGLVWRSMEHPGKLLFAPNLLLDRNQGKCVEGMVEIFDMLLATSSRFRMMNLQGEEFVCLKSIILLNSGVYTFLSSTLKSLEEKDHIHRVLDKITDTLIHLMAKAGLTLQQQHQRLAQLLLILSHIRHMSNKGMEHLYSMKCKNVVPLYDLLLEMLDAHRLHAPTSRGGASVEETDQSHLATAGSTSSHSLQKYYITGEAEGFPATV

[11] = Cmax in […] chronic ob/ob model at 50 mg/kg, po qd for 28 days measured on day 28 post last dose; assay type: ADME, organism-based; design: dose 50 mg/kg, route oral; details: in vivo
[12] = tested on: Rattus norvegicus; experiment: Toxicity in […] chronic ob/ob model assessed as serum triglyceride level at 50 mg/kg, po qd for 31 days measured on day 32 (reference value: 329 +/- 36 mg/dl); assay type: organism-based; details: in vivo, 744 h
[13] = tested on: Rattus norvegicus; experiment: Antidiabetic activity in Zucker rat sub-chronic fa/fa prediabetic model assessed as serum adiponectin level at 1 mg/kg, po qd for 4 days by ELISA (reference value: 9.1%); assay type: functional
[14] = tested on: Rattus norvegicus; experiment: Toxicity in Zucker rat sub-chronic fa/fa prediabetic model assessed as increase in food consumption at 10 mg/kg, po qd during 10 days study; assay type: organism-based; details: in vivo, 240 h
[15] = tested on: Rattus norvegicus; experiment: Decrease in fed plasma glucose level in Zucker rat sub-chronic fa/fa prediabetic model at 10 mg/kg, po qd for 4 days measured on day 5 relative to control; assay type: functional; design: scale not given: the % may be the effect or the level left
[16] = tested on: Rattus norvegicus; experiment: Effect on MED24 gene expression in epididymal white adipose tissue of Zucker rat sub-chronic fa/fa prediabetic model at 10 mg/kg, po qd for 15 days by microarray analysis relative to control; assay type: functional
[17] = tested on: Rattus norvegicus; experiment: Effect on COX4I1 gene expression in epididymal white adipose tissue of Zucker rat sub-chronic fa/fa prediabetic model at 10 mg/kg, po qd for 15 days by microarray analysis relative to control; assay type: functional
[18] = AUC (0 to 24 hrs) in […] model at 3 mg/kg, po qd for 28 days measured on day 28 post last dose; assay type: ADME, organism-based; design: dose 3 mg/kg, time < 24 hr, route oral; details: in vivo
[19] = tested on: Rattus norvegicus; experiment: Toxicity in […] model assessed as serum creatinine level at 10 mg/kg, po qd for 31 days measured on day 32 (reference value: 0.55 +/- 0.018 mg/dl); assay type: organism-based; details: in vivo, 744 h
[20] = tested on: Rattus norvegicus; experiment: Effect on HMGCS2 gene expression in epididymal white adipose tissue of Zucker rat sub-chronic fa/fa prediabetic model at 10 mg/kg, po qd for 15 days by microarray analysis relative to control; assay type: functional
[21] = tested on: Rattus norvegicus; experiment: Toxicity in Zucker rat sub-chronic fa/fa prediabetic model assessed as brown adipose tissue weight at 10 mg/kg, po qd for 31 days measured on day 32 (reference value: 2.1 +/- 0.3 g); assay type: organism-based; details: in vivo, 744 h
[22] = tested on: Rattus norvegicus; experiment: Toxicity in […] chronic ob/ob model assessed as food intake at 3 mg/kg, po qd for 28 days measured on day 1 to 28 during compound dosing (reference value: 170.6 +/- 3 g); assay type: organism-based; details: in vivo, 672 h
[23] = tested on: Rattus norvegicus; experiment: Toxicity in Zucker rat sub-chronic fa/fa prediabetic model assessed as triglyceride level per gram liver at 50 mg/kg, po qd for 31 days measured on day 32 (reference value: 163.4 +/- 8.3 mg); assay type: organism-based; details: in vivo, 744 h
[24] = tested on: Rattus norvegicus; experiment: Effect on NFATC4 gene expression in epididymal white adipose tissue of Zucker rat sub-chronic fa/fa prediabetic model at 10 mg/kg, po qd for 15 days by microarray analysis relative to control; assay type: functional
[25] = tested on: Rattus norvegicus; experiment: Toxicity in Zucker rat sub-chronic fa/fa prediabetic model assessed as brown adipose tissue weight at 1 mg/kg, po qd for 31 days measured on day 32 (reference value: 2.1 +/- 0.3 g); assay type: organism-based; details: in vivo, 744 h
[26] = tested on: Rattus norvegicus; experiment: Toxicity in Zucker rat sub-chronic fa/fa prediabetic model assessed as serum triglyceride level at 10 mg/kg, po qd for 31 days measured on day 32 (reference value: 1382 +/- 268 mg/dl); assay type: organism-based; details: in vivo, 744 h
[27] = Oral bioavailability in Sprague-Dawley rat at 10 mg/kg administered via gavage by LC-MS analysis; assay type: ADME, organism-based; details: in vivo
[28] = tested on: Rattus norvegicus; experiment: Antidiabetic activity in Zucker rat sub-chronic fa/fa prediabetic model assessed as fasting blood insulin level at 50 mg/kg, po qd for 31 days measured on day 29 post dose (reference value: 8.5 +/- 1.4 ug/L); assay type: functional
[29] = Drug uptake in fat tissue of Zucker rat sub-chronic fa/fa prediabetic model at 12.5 mg/kg, po qd for 11 days; assay type: ADME, organism-based, Adipose tissue; details: read-out: Drug uptake
[30] = tested on: Rattus norvegicus; experiment: Effect on SDHD gene expression in epididymal white adipose tissue of Zucker rat sub-chronic fa/fa prediabetic model at 10 mg/kg, po qd for 15 days by microarray analysis relative to control; assay type: functional
[31] = Drug uptake in kidney of Zucker rat sub-chronic fa/fa prediabetic model at 12.5 mg/kg, po qd for 11 days; assay type: ADME, organism-based; details: read-out: Drug uptake
[32] = tested on: Rattus norvegicus; experiment: Toxicity in Zucker rat sub-chronic fa/fa prediabetic model assessed as epididymal white adipose tissue weight at 10 mg/kg, po qd for 31 days measured on day 32 (reference value: 13.9 +/- 0.6 g); assay type: organism-based; details: in vivo, 744 h
[33] = tested on: Rattus norvegicus; experiment: Toxicity in Zucker rat sub-chronic fa/fa prediabetic model assessed as insulin level per gram pancreas at 10 mg/kg, po qd for 31 days measured on day 32 (reference value: 55.2 +/- 5.5 ug); assay type: organism-based; details: in vivo, 744 h

In the case of CN1CC[C@@H](N2C(=O)S/C(=C\c3ccc4c(cnn4Cc4ccc(Cl)cc4C(F)(F)F)c3)C2=O)[C@H](F)C1, the “fold change (FC)” value [1] is reported as 1.239, the “fold change (FC)” value [2] is reported as 1.349 and the “fold change (FC)” value [3] is reported as 1.255. The “fold change (FC)” value [4] was 1.475, the IC50 [5] was > 10 µM and the AUC [6] was 16.7 ng·h/mL. For the same compound, the “fold change (FC)” value [7] was -1.277, the Activity [8] was 1.19 g and the Activity [9] was 167.8 g. For the same compound, the IC50 [10] was > 10 µM, the Cmax [11] was 1680 ng/mL and the Activity [12] was 81 mg/dL. The Activity [13] was 8.6%, the Activity [14] was “Non-Toxic” and the Activity [15] was -32%. For the same compound, the “fold change (FC)” value [16] was -1.216, the “fold change (FC)” value [17] was 1.323 and the AUC at 24 h [18] was 2150 ng·h/mL. The Activity [19] was 0.44 mg/dL, the “fold change (FC)” value [20] was -1.488 and the Activity [21] was 8.7 g. The Activity [22] was 159.1 g, the Activity [23] was 69.4 mg and the “fold change (FC)” value [24] was 1.383. The Activity [25] was 3.7 g, the Activity [26] was 341 mg/dL and the bioavailability [27] was 84%. For the same compound, the Activity [28] was 0.7 µg/L, the concentration at 264 h [29] was 58100 ng/g and the “fold change (FC)” value [30] was 1.275. For the same compound, the concentration at 264 h [31] was 2660 ng/g, the Activity [32] was 19.1 g and the Activity [33] was 80.1 µg.
